According to patent EP0105106A2, “Anti-bacterial composition” (DAITO KOEKI KABUSHIKI KAISHA, priority 1982, dated 1984):

How the values were obtained:
[1] = test system: Staphylococcus aureus 209P; experiment: Anti-bacterial test, Chequer board method; assay type: cell-based
Procedure: Tests for anti-bacterial properties were conducted on compositions of the sample of chitosan and SMX, mixed according to the mixing ratios shown in Tables 1 through 3, respectively.
As strains to be tested, there are used Staphylococcus aureus 209P (a typical example of Gram positive bacteria), Escherichia coli NIHJ (a typical example of Gram negative bacteria) and Pseudomonas aeruginosa 3456.
The combined effects obtained by the present tests were determined in accordance with the Chequer board method with reference to the knowledges of Bushby et al (Bushby, S.R.M. & G.H. Hitchings: Trimethoprim. a sulfonamide potentiator. Brit. J. pharm. Chemother 33: 72 ~ 90, 1968) and Bohni et al (Bohni. E: Vergleichende bakteriologishe Untersuchungen mit der Kombination Trimethoprim/Sulfamethoxazol in vitro und in vivo. Chemotherapy. Suppl ad. 14: 1 21, 1969), both of whom reporting the combined effect between sulfamethoxazole (SMX) and trimethoprim (TMP), both of which are noted on the market at present. The results of the tests are shown in Table 1 through 3, respectively.

Escherichia coli NIHJ = experiment: Survival of mice infected with Escherichia coli; assay type: in vivo, ICR mice (male); conditions: in 28 hours; dosage of SMX of 5 or 10 mg in two hours after the infection
Excerpt: A strain of Escherichia coli NIHJ is floated in physiologic saline, and a mixture solution containing the strain of Escherichia coli NINJ and 4% mucin, being equal in absorbance to each other is produced. ICR mice (male) were fed with […] this mixture solution containing the bacteria. As the result, all examples of the mice infected with the strain of Escherichia coli (intra Peritoneal administration of 5 ~ 10 times LDso in mice) died in twelve hours (The first contrast group). Subsequently, 80 m 90% of the group of mice on the dosage of SMX of 5 or 10 mg in two hours after the infection were still alive in 24 hours. The rate of survival of the group of mice decreased to 10 ~ 20% in 28 hours.

`Cc1cc(NS(=O)(=O)c2ccc(N)cc2)no1` [SMX, sulfamethoxazol] was tested, and the MIC ([1]; Staphylococcus aureus, 209P, SMX solely used, in a test tube, read-out: minimum inhibition concentration (MIC) of SMX) was 50 µg/mL, the “MIC of SMX” value ([1]; chitosan added at a rate of 2.5 µg/mℓ) was 3.1 µg/mL and the “anti-bacterial action is increased” value ([1]; chitosan added at a rate of 2.5 µg/mℓ, versus SMX solely used) was “about 16 times SMX”. For the same molecule, the rate of survival (Escherichia coli NIHJ) was 10 ~ 20%.
